# Tests used:
# [1] = system: THP1 Dual cells (ISRE Lucia reporter, cGAS-STING pathway); assay: THP1 monocyte assay, ISRE Lucia luciferase reporter; type: cell-based, human; conditions: 48 hours, luciferase signal versus control wells without compound
# Description: Example C is a cell-based assay for TREX1 inhibitors using THP1 Dual™ cells (Invivogen), a human monocyte cell line that has stable integration of an Interferon Stimulated Response Element (ISRE) Lucia reporter gene. The Lucia gene encodes a secreted luciferase reporter protein, under the control of an ISG54 minimal promoter in conjunction with five IFN-stimulated response elements. Activation of the cGAS-STING pathway in THP1 Dual™ cells leads to enhanced luciferase secretion and increased luminescence.
# A cell-based assay was established using THP1 Dual™ cells (Invivogen), a human monocyte cell line that has stable integration of an Interferon Stimulated Response Element (ISRE) Lucia reporter gene. The Lucia gene encodes a secreted luciferase reporter protein, under the control of an ISG54 minimal promoter in conjunction with five IFN-stimulated response elements. Activation of the cGAS-STING pathway in these cells leads to enhanced luciferase secretion. The assay was conducted in standard 384-well white tissue culture plates. Cells (25,000 in 25 μL RPMI 1640 containing 10% Heat-Inactivated FBS, 1× Glutagro, 10 mM HEPES, 1 mM sodium pyruvate, 1× Pen/Strep, 100 μg/mL Normocin, 100 μg/mL Zeocin, 10 μg/mL Blasticidin) were added to the plate followed by 25 μL of compound in the same media+0.2% DMSO. The assay was incubated for 48 hours at 37° C. in 5% CO2. An aliquot of 5 μl was removed to combine with 12.5 μL of the luciferase detection reagent, QUANTI-Luc™ Gold (Invivogen) in a white 384-well plate. The luminescent signal was then read using an EnVision plate reader (Perkin Elmer). The fold activation was calculated by dividing the signal in wells containing test compound by the signal in the control wells without compound (see Table 7).
# [2] = system: interferon stimulated genes (ISGs) in THP1 Dual cells; assay: RT-qPCR assay of interferon stimulated gene expression; type: cell-based, human; conditions: substance alone, 24 hours, normalized to GAPDH, unstimulated control = 1
# Description: Example D is a cell based assay that measures the increase in the expression of interferon stimulated genes (ISG) by RT-qPCR that are induced by TREX1 inhibitors when THP1 Dual™ cells are transfected with double-stranded DNA. The double stranded DNA used to transfect cells was VACV-70 (Invivogen), a 70 base pair oligonucleotide containing viral DNA motifs (Unterholzner L. et al., 2010. IFI16 is an innate immune sensor for intracellular DNA. Nat Immunol. 11(11):997-1004). Activation of cGAS-STING pathway in THP1 Dual™ cells increases the expression of ISGs.
# The RT-qPCR assay was used to assess the ability of TREX1 inhibitors to enhance the expression of interferon stimulated genes (ISGs) in cells transfected with double-stranded DNA. The double stranded DNA used to transfect cells was VACV-70 (Invivogen), a 70 base pair oligonucleotide containing viral DNA motifs (Unterholzner L. et al., 2010. IFI16 is an innate immune sensor for intracellular DNA. Nat Immunol. 11(11):997-1004). Human THP1 Dual™ cells (Invivogen), were treated with test compound in the presence or absence of 1,200 ng/mL VACV-70, or with VACV-70 alone, for 24 hours. Cells were harvested by centrifugation and washed with phosphate buffer saline. Total RNA was isolated using Qiagen RNeasy mini kit. Genomic DNA was degraded using Thermo Scientific DNase 1 kit. Total RNA was quantified using a Nanodrop spectrophotometer. Using equal amounts of RNA, cDNA was synthesized using Invitrogen Superstrand III First Strand synthesis kit. Target and reference gene expression levels were determined by RT-qPCR using TaqMan gene expression assays and a Stratagene Mx3005P QPCR system (all reagents were from TaqMan, Applied Biosystems). Data were analyzed by the Comparative CT method. GAPDH was used for normalization. Target genes that were analyzed included interferon stimulated genes (INF-β, CXCL10, IFIT1, IFIT2, IFIT3, IFI44, and IFI44L).
# human TREX1 = human TREX1 (Homo sapiens (Human), UniProt Q9NSU2); assay: TREX1 Exonuclease Assay (human enzyme); type: biochemical; conditions: human TREX1 0.5 nM, FAM/BHQ1-labeled DNA oligonucleotide
# Chain of human TREX1 (Q9NSU2 1-242): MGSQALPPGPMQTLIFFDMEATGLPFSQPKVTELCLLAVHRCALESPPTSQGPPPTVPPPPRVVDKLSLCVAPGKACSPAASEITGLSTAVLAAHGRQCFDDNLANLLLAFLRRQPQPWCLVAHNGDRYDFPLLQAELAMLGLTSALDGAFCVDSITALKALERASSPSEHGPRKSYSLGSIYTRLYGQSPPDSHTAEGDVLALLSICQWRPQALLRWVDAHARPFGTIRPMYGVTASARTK
# How it was run: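 Human TREX1 (aa 55-297, 0.5 nM) or murine TREX1 (aa 1-242, 1 nM) preincubated 30 min with compound (11-point, 3-fold), then 500 nM FAM/BHQ1-quenched DNA oligo added; 45 min at room temperature in pH 7.5 Tris buffer with 5 mM MgCl2, EDTA-stopped. Fluorescence (ex 485/em 535 nm) fit to four-parameter curve for IC50.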
compound,measurement,setting,value
N[C@@H]1C[C@H]2C(=O)N([C@H](CCC(=O)O)C(=O)NCc3ccc(Cl)c(Cl)c3)CCC(CCc3ccccc3)N2C1 (stereo partly drawn) [Example 14B],Fold activation @ 10 μM,[1],12
same,CXCL10 expression,[2],2
same,IFI44L expression,[2],65
same,IFI44 expression,[2],54
same,IFIT1 expression,[2],19
same,IFIT2 expression,[2],44
same,IFIT3 expression,[2],25
same,IFN-β expression,[2],7
same,IC50,human TREX1,< 1000 nM

# Source: US11306098B2, “Substituted pyrrolo[1,2-a]pyrazines and pyrrolo[1,2-a][1,4]diazepines as TREX1 inhibitors” (VENENUM BIODESIGN, LLC, priority 2019, dated 2022)
